The first experiment deals with T1, His6-PDK1 (aa 52-556) (Homo sapiens, UniProt O15530).
T1 construct: 15 μL His6-PDK1 (aa 52-556) 3.33 ng/well); host or cells: baculovirus-infected insect cells
T1 sequence (O15530 52-556): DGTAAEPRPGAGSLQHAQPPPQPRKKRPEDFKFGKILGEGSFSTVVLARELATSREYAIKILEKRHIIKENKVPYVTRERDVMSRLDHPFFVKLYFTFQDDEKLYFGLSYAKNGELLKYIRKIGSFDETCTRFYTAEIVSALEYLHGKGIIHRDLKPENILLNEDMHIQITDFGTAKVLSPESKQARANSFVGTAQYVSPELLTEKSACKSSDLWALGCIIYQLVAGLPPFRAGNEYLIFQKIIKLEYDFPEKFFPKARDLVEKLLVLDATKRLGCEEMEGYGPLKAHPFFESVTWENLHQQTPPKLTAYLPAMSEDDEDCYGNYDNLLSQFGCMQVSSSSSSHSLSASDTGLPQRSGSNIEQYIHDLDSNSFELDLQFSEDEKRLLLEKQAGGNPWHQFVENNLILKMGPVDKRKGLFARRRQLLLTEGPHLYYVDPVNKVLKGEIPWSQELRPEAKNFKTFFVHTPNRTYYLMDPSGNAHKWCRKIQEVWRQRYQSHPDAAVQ
The experiment in a line: PDK1 kinase assay III (with Tween 20). The class given is biochemical. The conditions noted are these: compound at 10 μM; PDK1 kinase assay III (values without asterisk); read-out: % CTL (residual activity of the enzyme relative to DMSO control). The method in brief: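 Started with ATP, incubated 90 min at ambient temperature, then stopped with phosphoric acid. Asterisked values come from assay II (24 h or 5 min incubation).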
Turning to `COCCCNC(=O)c1ccc(Nc2ncc3cc(C#CCNC(=O)c4c(C)n(C)n(Cc5ccc(F)c(F)c5)c4=O)ccc3n2)cc1`, the remaining activity at 10 µM came to 12.1%.

As to `CNc1ncc2cc(C#CCNC(=O)c3cncn(Cc4ccc(F)c(F)c4)c3=O)ccc2n1` [III-43, 1-(3,4-difluorobenzyl)-N-{3-[2-(methylamino)quinazolin-6-yl]prop-2-yn-1-yl}-6-oxo-1,6-dihydropyrimidine-5-carboxamide], the remaining activity at 10 µM worked out at 20.3%.

Take `CN(C)Cc1ccc(-c2cc3c(Nc4ccc(CNC(=O)c5cncn(Cc6ccc(F)c(F)c6)c5=O)cc4)ncnc3[nH]2)cc1` [IV-26, 1-(3,4-difluorobenzyl)-N-{4-[(6-{4-[(dimethylamino)methyl]phenyl}-7H-pyrrolo[2,3-d]pyrimidin-4-yl)amino]benzyl}-6-oxo-1,6-dihydropyrimidine-5-carboxamide]: the remaining activity at 10 µM stood at 20.9%.

For `Cc1c(C(=O)NC/C=C/c2ccc3c(c2)NC(=O)/C3=C\c2ncc[nH]2)c(=O)n(Cc2ccc(F)c(F)c2)n1C` [I-41, 2-(3,4-difluorobenzyl)-N-{(2E)-3-[(3Z)-3-(1H-imidazol-2-ylmethylidene)-2-oxo-2,3-dihydro-1H-indol-6-yl]prop-2-en-1-yl}-1,5-dimethyl-3-oxo-2,3-dihydro-1H-pyrazole-4-carboxamide], the remaining activity at 10 µM was determined as 16.6%.

With `O=C1Nc2cc(/C=C/CNC(=O)c3cccc(Nc4ccc(F)c(F)c4)n3)ccc2/C1=C/c1cnc[nH]1` [I-20, 6-[(3,4-difluorophenyl)amino]-N-{(2E)-3-[(3Z)-3-(1H-imidazol-5-ylmethylidene)-2-oxo-2,3-dihydro-1H-indol-6-yl]prop-2-en-1-yl}pyridine-2-carboxamide], the remaining activity at 10 µM came out at 42.7%.

In the case of `CN(C)Cc1ccc(Nc2ncc3cc(/C=C/CNC(=O)c4cncn(Cc5ccc(F)c(F)c5)c4=O)ccc3n2)cc1` [IV-3, 1-(3,4-difluorobenzyl)-N-{(2E)-3-[2-({4-[(dimethylamino)methyl]phenyl}amino)-quinazolin-6-yl]prop-2-en-1-yl}-6-oxo-1,6-dihydropyrimidine-5-carboxamide], the remaining activity at 10 µM worked out at 11.1%.

For the compound `CCOC(=O)c1ccc(Nc2ncc3cc(/C=C/CNC(=O)c4cncn(Cc5ccc(F)c(F)c5)c4=O)ccc3n2)cc1` [IV-53, ethyl-4-({6-[(1E)-3-({[1-(3,4-difluorobenzyl)-6-oxo-1,6-dihydropyrimidin-5-yl]carbonyl}amino)prop-1-en-1-yl]quinazolin-2-yl}amino)benzoate], the remaining activity at 10 µM was found to be 33.4%.

`COc1ccc(Nc2ncc3cc(/C=C/CNC(=O)c4cncn(Cc5ccc(F)c(F)c5)c4=O)ccc3n2)cc1`: the remaining activity at 10 µM worked out at 13.8%.

On to `COC(=O)c1ccc(Nc2ncc3cc(/C=C/CNC(=O)c4cncn(Cc5ccc(F)c(F)c5)c4=O)ccc3n2)cc1OC`, for which the remaining activity at 10 µM stood at 38.2%.

Take `CN1CCC(N(C)c2ccc(Nc3ncc4c(F)c(/C=C/CNC(=O)c5cncn(Cc6ccc(F)c(F)c6)c5=O)ccc4n3)cc2)CC1` [IV-35, 1-(3,4-difluorobenzyl)-N-{(2E)-3-[5-fluoro-2-({4-[methyl(1-methylpiperidin-4-yl)amino]phenyl}amino)quinazolin-6-yl]prop-2-en-1-yl}-6-oxo-1,6-dihydropyrimidine-5-carboxamide]: the remaining activity at 10 µM was found to be 13.9%.

As for `Cc1c(C(=O)NC/C=C\c2ccc3cn[nH]c3c2)c(=O)n(Cc2ccc(F)c(F)c2)n1C` [II-7, 2-(3,4-difluorobenzyl)-N-[(2Z)-3-(1H-indazol-6-yl)prop-2-en-1-yl]-1,5-dimethyl-3-oxo-2,3-dihydro-1H-pyrazole-4-carboxamide], the remaining activity at 10 µM is 27.4%.

With `Cc1c(C(=O)NC/C=C/c2ccc3nc(Nc4ccc(C(=O)O)cc4)ncc3c2)c(=O)n(Cc2ccc(F)c(F)c2)n1C`, the remaining activity at 10 µM is 12.9%.

In the case of `CNc1ncc2cc(C#CCNC(=O)c3c(C)n(C)n(Cc4ccc(F)c(F)c4)c3=O)ccc2n1`, the remaining activity at 10 µM turned out to be 14.9%.

Regarding `Cc1c(C(=O)NCC#Cc2ccc3nc(Nc4ccc(C(=O)NCCN(C)C)cc4)ncc3c2)c(=O)n(Cc2ccc(F)c(F)c2)n1C`, the remaining activity at 10 µM is 10.8%.

Consider `Cc1c(C(=O)NCC#Cc2ccc3nc(Nc4ccc(C(=O)NC5CCC(C)CC5)cc4)ncc3c2)c(=O)n(Cc2ccc(F)c(F)c2)n1C` (stereo not shown), for which the remaining activity at 10 µM stood at 20.8%.

On to `CN(C)Cc1ccc(Nc2ncc3cc(/C=C(\F)CNC(=O)c4cncn(Cc5ccc(F)c(F)c5)c4=O)ccc3n2)cc1` [IV-30, 1-(3,4-difluorobenzyl)-N-{(2Z)-3-[2-({4-[(dimethylamino)methyl]phenyl}amino)-quinazolin-6-yl]-2-fluoroprop-2-en-1-yl}-6-oxo-1,6-dihydropyrimidine-5-carboxamide], for which the remaining activity at 10 µM is 13.7%.

With `Cc1c(C#CCNC(=O)c2cncn(Cc3ccc(F)c(F)c3)c2=O)c(=O)n(C(C)C)c2nc(Nc3ccc(N4CCOCC4)cc3)ncc12` [III-29, 1-(3,4-difluorobenzyl)-N-{3-[5-methyl-2-{[4-(morpholin-4-yl)phenyl]amino}-7-oxo-8-(propane-2-yl)-7,8-dihydropyrido[2,3-d]pyrimidin-6-yl]prop-2-yn-1-yl}-6-oxo-1,6-dihydropyrimidine-5-carboxamide], the remaining activity at 10 µM is 16.4%.

The target in another experiment is T2, ΔPH-PDK1 (aa 51-359; Q66A mutation) (Homo sapiens, UniProt O15530, Q66A).
T2 construct: a shortened PDK1 enzyme (aa 51-359; Q66A mutation) is used; His6 (N, cleaved yes)
T2 sequence (O15530 51-359 Q66A): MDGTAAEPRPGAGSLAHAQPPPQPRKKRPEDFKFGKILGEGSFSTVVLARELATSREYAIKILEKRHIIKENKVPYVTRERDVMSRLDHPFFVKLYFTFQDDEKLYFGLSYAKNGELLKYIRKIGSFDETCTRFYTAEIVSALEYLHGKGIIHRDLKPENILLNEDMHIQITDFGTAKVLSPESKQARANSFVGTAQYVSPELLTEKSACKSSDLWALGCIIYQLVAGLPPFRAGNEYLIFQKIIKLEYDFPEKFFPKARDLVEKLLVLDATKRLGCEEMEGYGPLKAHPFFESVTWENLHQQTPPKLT
The experiment in a line: PDK1 kinase assay II (shortened enzyme). The class given is biochemical. The conditions noted are these: compound at 10 μM, one asterisk: incubation for 24 h, read-out: % CTL (residual activity of the enzyme relative to DMSO control). As for the experimental part: Another assay was developed in which a shortened PDK1 enzyme (aa 51-359; Q66A mutation) is used that carries in the N-terminal position a His6 tag that is cleaved during purification. (ΔPH-PDK1).
The following components are combined in a well of a 96-well round-based dish (Messrs. Greiner bio-one, No. 650101): • 15 μL of compound to be tested in varying concentrations (e.g. Starting at 10 μM, and diluted in steps of 1:5) in 3.33% DMSO (final concentration 1% DMSO)/assay buffer (50 mM Tris pH 7.5, 0.05% β-mercaptoethanol, 10 mM Mg-acetate) • 15 μL (ΔPH-PDK1; 12 ng/well) and PDKtide ([…]-QEMFRDFDYIADWC) synthesised by Pepceuticals Limited, Nottingham, United Kingdom; 25 μM final concentration); (ΔPH-PDK1 and PDKtide are together diluted accordingly in assay buffer; PDKtide is present in this mixture as an 83.3 μM solution. These 30 […] are incubated for 24 h at RT before ATP solution is added. • 20 μL ATP solution (25 μM ATP with 1.0 μCi/well gamma-P33-ATP)
The reaction is started by adding the ATP solution and the mixture is incubated for 120 min at ambient temperature; at the start of the reaction the dishes are shaken gently. The reaction is stopped by the addition of 50 μL/well of 500 mM phosphoric acid (H3PO4) and incubated for about 20 min at ambient temperature. The precipitate is transferred by harvesting onto filter plates (96-well microtitre filter plate: UniFilter GF/C; Messrs Perkin Elmer; No. 6005174), then washed 6 times with 50 mM H3PO4 and dried at 60° C. Then the plate is stuck down with sealing tape, 25 μL/well of scintillation solution (Microscint 0; Messrs. Perkin Elmer; No. 6013611) are added and the amount of P33 precipitated is measured using the Wallac Betacounter. The measured data are evaluated using Graphpad Prism software.
The % CTL values indicate the residual activity of the enzyme after the addition of the inhibitory compound in the solvent DMSO in relation to the enzyme activity in the solvent DMSO without the addition of a compound (control). The majority of the values were determined using the PDK1 kinase assay III described hereinbefore. The values marked with an asterisk (* or**) were determined using the PDK1 kinase assay II described hereinbefore (one asterisk→incubation for 24 h; two asterisks→incubation for 5 min)
Turning to `Cc1c(C(=O)NCC#Cc2ccc3nc(Nc4ccc(C(=O)NCCO)cc4)ncc3c2)c(=O)n(Cc2ccc(F)c(F)c2)n1C`, the remaining activity at 10 µM came out at 12.1%.

As for `CN1CCC(Nc2ccc(Nc3ncc4cc(C#CCNC(=O)c5cncn(Cc6ccc(F)c(F)c6)c5=O)ccc4n3)cc2F)CC1` [III-31, 1-(3,4-difluorobenzyl)-N-{3-[2-({3-fluoro-4-[(1-methylpiperidin-4-yl)amino]-phenyl}amino)quinazolin-6-yl]prop-2-yn-1-yl}-6-oxo-1,6-dihydropyrimidine-5-carboxamide], the remaining activity at 10 µM stood at 6.5%.

On to `Cc1c(C(=O)NC/C=C/c2cc(OC3CCNCC3)c3nc(Nc4ccc(N5CCOCC5)cc4)ncc3c2)c(=O)n(Cc2ccc(F)c(F)c2)n1C`, for which the remaining activity at 10 µM is 8.9%.

For `CC(=O)Nc1ccc(Nc2ncc3cc(/C=C/CNC(=O)c4cncn(Cc5ccc(F)c(F)c5)c4=O)ccc3n2)cc1` [IV-47, N-[(2E)-3-(2-{[4-(acetylamino)phenyl]amino}quinazolin-6-yl)prop-2-en-1-yl]-1-(3,4-difluorobenzyl)-6-oxo-1,6-dihydropyrimidine-5-carboxamide], the remaining activity at 10 µM amounted to 16.6%.

Turning to `C/C(=C\c1ccc2nc(Nc3ccc(CN(C)C)cc3)ncc2c1)CNC(=O)c1cncn(Cc2ccc(F)c(F)c2)c1=O` [IV-28, 1-(3,4-difluorobenzyl)-N-{(2E)-3-[2-({4-[(dimethylamino)methyl]phenyl}amino)-quinazolin-6-yl]-2-methylprop-2-en-1-yl}-6-oxo-1,6-dihydropyrimidine-5-carboxamide], the remaining activity at 10 µM stood at 27.9%.
